The record followed here is patent US10233157B2, “SIK inhibitor for use in a method of treating an inflammatory and/or immune disorder” (Dana-Farber Cancer Institute, Inc., priority 2012, dated 2019).

The test system of the assay is MARK isoforms. The experiment in a line: Kinase assays, MARK isoforms. The class given is biochemical. The settings on record: in vitro.

Description: FLAG-CRTC3 was immunoprecipitated using anti-FLAG M2 agarose, washed in kinase buffer (50 mM Tris/HCl pH 7.4, 10 mM Mg acetate, 0.1 mM EGTA, 2 mM DTT) and reactions initiated by adding 4 U/ml recombinant kinase with 0.1 mM ATP (specific activity 3000 cpm/pmol). Phosphorylation of CRTC3 was monitored by autoradiography as well as immunoblotting using phosphospecific antibodies raised against Ser162, Ser329 and Ser370.

As to `O=C(NCCCNc1nc(Nc2cccc(CN3CCOCC3)c2)ncc1C1CC1)C1CCC1` [MRT67307], the “inhibition of MARK isoforms” value was “comparable potency to the IKK-related kinases”.
